Patent US7635709B2, “Compositions and methods for bowel care in individuals with chronic intestinal pseudo-obstruction” (priority 2002, dated 2009)

How the values were obtained:
persons with SCI [1] = test: Bowel evacuation score by video fluoroscopy after rectal barium-oatmeal paste in thirteen SCI subjects (Example 3); format: in vivo, human; settings: IV bolus 2 mg neostigmine, with or without 0.4 mg glycopyrrolate, 13 SCI subjects
Procedure: (§1) Thirteen (13) persons with SCI (5 quadriplegics, 8 paraplegics) with a mean age of 46 years (range 25-69) and mean duration of injury of 16 years (range 1-31) were treated. None of the subjects had known heart disease and/or history of arrhythmias.
(§2) On separate days, subjects were given by IV bolus either (i) 2 mg neostigmine alone, (ii) a combination of 2 mg neostigmine and 0.4 mg glycopyrrolate, or (iii) normal saline. Subjects were blinded to the type of infusion being delivered. The effect of these infusions on bowel evacuation was assessed semi-quantitatively on a scale of 0 (no evacuation) to 4+ (complete evacuation) using video fluoroscopy after rectal instillation of a barium-oatmeal paste having a consistency similar to that of stool. Blood pressure, heart rate and other vital signs were monitored in each subject. In addition, airway resistances were determined in each subject using the forced oscillation technique (as described, for example, in Goldman, Pulm. Pharmacol. Ther., 14(5):341-350, 2001). Total airway resistance was determined using 5 Hz forced oscillations, and central airway resistance was determined using 20 Hz forced oscillations.
This response received a 0 (zero) bowel evacuation score. FIGS. 1B-1E show progressively increasing bowel evacuation responses in different subjects. The responses in FIGS. 1B-1E correspond to bowel evacuation scores of 1+, 2+, 3+, and 4+, respectively.

persons with SCI [2] = test: Heart rate, blood pressure and side effects monitoring in thirteen SCI subjects (Example 3); format: in vivo, human; settings: IV bolus 2 mg neostigmine, with or without 0.4 mg glycopyrrolate, 13 SCI subjects
Procedure: as §1, §2

persons with SCI [3] = test: Airway resistance by forced oscillation technique in thirteen SCI subjects (Example 3); format: in vivo, human; settings: IV bolus 2 mg neostigmine
Procedure: as §2

[4] = test system: patients with acute colonic pseudo-obstruction; settings: Ponec et al. 1999; cited from earlier work

CN(C)C(=O)Oc1cccc([N+](C)(C)C)c1 [neostigmine]
subjects with prompt and complete evacuation (persons with SCI [1]): 57 % of subjects | time of evacuation post infusion, mean (persons with SCI [1]): 11 min | mean bowel evacuation score (persons with SCI [1]; scale 0 (no evacuation) to 4+ (complete evacuation)): about 2.29 | change in blood pressure after administration (persons with SCI [2]): No change | other side effects (muscle twitching, sweating, vague abdominal sensations, salivation) (persons with SCI [2]): transient and minimal | mean lowest heart rate measured (persons with SCI [2]; p=0.02 between groups): about 49 BMP | total airway resistance, increase over baseline (persons with SCI [3]; 5 Hz forced oscillations): approximately 25.5% | central airway resistance, increase over baseline (persons with SCI [3]; 20 Hz forced oscillations): approximately 18.4% | passage of flatus or stool with reduction in abdominal distention [4]: most patients successfully passed flatus or stool
